Experimental data as given in US7910723B2, “IG20 splice variants therapeutics for cancer” (The Board of Trustees of the University of Illinois, priority 2006, dated 2011).

Tests used:
HEK293 cells = experiment: Cell death of HEK293 cells transfected with MADD constructs, Trypan Blue exclusion; type: cell-based; settings: HEK293, 48 h after transfection
Experimental: (A) HEK293 cells were transfected with various MADD constructs. Cell death was determined 48 h after transfection by Trypan Blue exclusion. *p<0.05 vs control. (B) Apoptosis analyzed by Cell Death Detection ELISA. *p<0.05 vs control. (C) Phosphorylatable but not the nonphosphorylatable MADD could rescue cell death upon endogenous MADD knockdown. HeLa cells were infected with the lentivirus harboring MADD shRNAi (RNAi) or its scrambled form (Scrambled RNAi). 24 h after infection, cells were transfected with the constructs of wtMADD-R or MADD3A-R. 48 h after transfection, cell death was determined by Trypan Blue exclusion. *p<0.05 vs RNAi alone. (D) Inhibition of Akt or PI3K could abolish the ability of wtMADD-R to rescue cell death upon endogenous MADD knockdown. HeLa cells were infected with the lentivirus harboring MADD shRNA (RNAi). 24 h after infection, cells were infected with the adenovirus harboring DN-Akt, and transfected with wtMADD-R. LY (10 μM) was added 6 h after transfection. 48 h after transfection, cell death was determined by Trypan Blue exclusion. Data are expressed as the mean±SEM of three independent experiments.
To see whether phosphorylation is required for the prosurvival function of MADD, WT and mutant MADD were tested. […] Since knockdown of endogenous MADD can cause cell death, it was tested whether the wtMADD or MADD3A could rescue this cell death. Only the shRNA resistant wtMADD (wtMADD-R) and not the MADD3A-R could rescue cell death upon endogenous MADD knockdown (FIG. 14C), which was abrogated in the presence either LY or DN-Akt (FIG. 14D). Taken together, the prosurvival function of MADD is dependent upon its phosphorylation by Akt.
Cell culture and viability assay. HEK293, HeLa and PA-1 cells were cultured. Cell death was determined by Trypan Blue exclusion and the numbers of Trypan Blue-positive and -negative cells were counted using a haemocytometer.

Akt = Akt (Homo sapiens, UniProt P31749); experiment: Phosphorylation of MADD in vitro by Akt (kinase assay); type: biochemical; settings: GST-tagged recombinant MADD, rAkt, 1 h at 30° C.
Chain of Akt (P31749 whole entry): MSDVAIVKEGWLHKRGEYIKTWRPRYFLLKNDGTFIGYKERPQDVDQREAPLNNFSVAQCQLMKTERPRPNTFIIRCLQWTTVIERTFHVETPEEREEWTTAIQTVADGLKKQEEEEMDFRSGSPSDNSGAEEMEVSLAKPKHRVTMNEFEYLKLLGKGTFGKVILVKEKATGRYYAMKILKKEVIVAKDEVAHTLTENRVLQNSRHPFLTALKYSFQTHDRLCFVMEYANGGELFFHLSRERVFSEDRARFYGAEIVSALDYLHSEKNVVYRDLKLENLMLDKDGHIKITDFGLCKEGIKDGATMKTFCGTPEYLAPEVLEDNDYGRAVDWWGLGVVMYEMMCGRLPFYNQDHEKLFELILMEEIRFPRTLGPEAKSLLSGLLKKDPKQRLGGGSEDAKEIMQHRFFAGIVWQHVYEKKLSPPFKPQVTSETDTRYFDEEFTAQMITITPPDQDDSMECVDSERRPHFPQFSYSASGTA
Experimental: (A) In vitro phosphorylation of rMADD by Akt. GST-wtMADD or -MADD mutants were expressed in bacteria, purified, and then incubated with rAkt and γ[^32P] ATP. After 1 h incubation at 30° C., the products were resolved on SDS-PAGE and ^32P-labeled proteins were visualized by autoradiography. (B) MADD is labeled by [^32P]orthophosphate in vivo. HEK293 cells were transfected with wtMADD or MADD mutant constructs. Twenty-four hours after transfection cells were incubated with 0.3 mCi/ml [32P]orthophosphate for 6 h. MADD was immunoprecipitated with an anti-YFP antibody. The precipitated MADD was separated by SDS-PAGE, transferred to a nitrocellulose membrane, and subjected to autoradiography. Loaded MADD was visualized by staining the same membrane with an anti-YFP antibody. (C) HEK293 cells were transfected with cDNAs for wtMADD or MADD mutants and. 36 h later the cells were harvested for immunoblotting using the anti-phospho-S-70, -T-173 or -T-1041 antibodies. An anti-YFP antibody was used to detect exogenous MADD. (D) HEK293 cells were transfected with wtMADD and 24 hours later cells were serum starved for 20 h. Subsequently, they were treated with LY (10 μM) for 1 h and/or IGF-1 (150 ng/ml) for 20 minutes. The cell lysates were immunoblotted and probed with anti phospho-specific antibodies or an anti-YFP antibody. (E) HEK293 cells were co-transfected with wtMADD along with dominant negative Akt (DN-Akt) or the empty vector pcDNA3.1 (pcDNA). Immunoblots were probed with the anti phospho-specific antibodies or an anti-YFP antibody. (F) HeLa cells were serum starved for 20 h, treated with LY (10 μM) for 1 h, IGF-1 (150 ng/ml) for 20 minutes. Immunoblot was probed with the anti phospho-specific antibodies or an anti-MADD antibody.
To test whether MADD is a substrate of Akt, an in vitro assay was employed to test whether Akt could directly phosphorylate MADD. […] It was tested whether MADD could be phosphorylated in vivo. […] Second, three antibodies that specifically reacted with phosphorylated S70 (anti-phospho S70), T173 (anti-phospho T173) or T1041 (anti-phospho T1041) were raised, respectively. The phosphopeptides, CRQRRMpSLRDDTS (SEQ ID NO: 7) (S-70), GSRSRNSpTLTSL (SEQ ID NO: 8) (T-173), and KRKRSPpTESVNTP (SEQ ID NO: 9) (T-1041) were used to immunize the rabbits. Antisera were depleted of antibodies that recognize non-phosphorylated MADD by negatively selecting the antibodies using an identical non-phosphorylated peptide affinity column. Antibodies in the flow through were tested to ensure that they specifically bind only to the corresponding phosphorylated peptide and not the non-phosphorylated couterpart. […]

DR4 = experiment: Association of exogenous MADD with DR4 in HEK293 cells (immunoprecipitation); type: cell-based
Experimental: (A) Phosphorylation status of MADD could influence its binding to DR4. HEK293 cells were transfected with wtMADD or MADD mutants. 36 h after transfection, the cells were harvested for immunoprecipitation using an anti-DR4 antibody followed by immunoblotting using an anti-YFP antibody to detect exogenous MADD. The membrane was reprobed with an anti-DR4 antibody to show the protein loading. (B) PI3K can influence the association of exogenous MADD with DR4. HEK293 cells were transfected with wtMADD. Twenty four hours after transfection, the cells were serum starved for 20 h. Further, they were treated with LY (10 μM) for 1 h, IGF-1 (150 ng/ml) for 20 minutes. Immunoprecipitation using an anti-DR4 antibody was followed by immunoblotting using anti-YFP or anti-DR4 antibody. (C) Akt can influence exogenous MADD association with DR4. HEK293 cells were co-transfected with wtMADD along with DN-Akt or the empty vector pcDNA3.1 (pcDNA). Thirty six hours after transfection, the cells were harvested for immunoprecipitation using anti-DR4 antibody followed by immunoblotting with an anti-YFP or an anti-DR4 antibody. (D) PI3K can influence the association of endogenous MADD with DR4. HeLa cells were serum starved for 20 h, then treated with LY (10 μM) for 1 h, IGF-1 (150 ng/ml) for 20 minutes. Immunoprecipitation using an anti-DR4 antibody was followed by immunoblotting with an anti-MADD or an anti-DR4 antibody. (E) Akt can influence the association of endogenous MADD with DR4. HeLa cells were transfected with DN-Akt or pcDNA. Thirty six hours after transfection, the cells were collected for immunoprecipitation using an anti-DR4 antibody followed by immunoblotting with an anti-MADD antibody.
MADD can bind to DR4 and thereby block the activation of the extrinsic apoptotic pathway. […] Stimulation of PI3K by IGF-1 increased, while inhibition by LY reduced, the association between wtMADD and DR4 (FIG. 15B). […] This interaction was reduced in the presence of LY (FIG. 15D) or DN-Akt (FIG. 15E).
Immunoprecipitation. Immunoprecipitations were performed using standard procedures. The samples were precleared with 10% (vol/vol) Protein-A agarose (Roche) for 1 h on a rocking platform. Specific antibodies were added and rocked for 1 h. Immunoprecipitates were captured by incubating with 10% (vol/vol) Protein-A agarose for an hour. The agarose beads were spun down and washed three times with NET/NP40 buffer (150 mM NaCl, 2 mM EDTA, 50 mM Tris-HCl pH 7.5, 0.1% NP-40). The antigens were released and denatured by adding SDS sample buffer. Immunoblots were prepared and analysed as described above.

ERK1/2 = experiment: TNF-α induced ERK phosphorylation in HeLa cells (immunoblot); type: cell-based; settings: TNF-α 50 ng/mL, untransduced
Experimental: (A) Time-kinetics of TNF-α induced ERK activation. HeLa cells (3×10^6 per 100 mm dish) were serum starved for 6 h and were either left untreated or treated with TNF-α (50 ng/mL) for different time periods as indicated. Cell lysates were analyzed for phosphorylated ERK or total ERK by immunoblot. (B) Down-modulation of endogenous IG20-SVs in HeLa cells. One microgram of total RNA obtained from HeLa cells 48 h post-transduction was used for reverse-transcription-polymerase chain reaction. The products were separated on a 2% agarose gel. Amplification of all four IG20-SVs was done using F2-B2 primers. […] HeLa cells (3×10^6 per 100 mm dish) were either untransduced or transduced with different lentiviruses expressing SCR, Mid and 13L ShRNA for different time periods as indicated. At the end of each time period, the cells were serum starved for 6 h and were either left untreated or treated with TNF-α (50 ng/mL) for 15 min. Cell lysates were analyzed for phosphorylated ERK or total ERK by immunoblot. The data shown is representative of at least 3 independent experiments.
(A) HeLa cells (3×10^6 per 100 mm dish) were transduced with different lentiviruses expressing SCR, Mid and 16E ShRNA for 48 h. The cells were then serum starved for 6 h and were either left untreated or treated with TNF-α (50 ng/mL) for 15 min. Cell lysates were analyzed for phosphorylated ERK or total ERK by immunoblot. (B) PA-1 cells (5×10^6 per 100 mm dish) were transduced with different lentiviruses expressing SCR, Mid and 13L ShRNA for 48 h. The cells were then serum starved for 6 h and were either left unstimulated or stimulated with TNF-α (50 ng/mL) for 15 min. Cell lysates were analyzed for phosphorylated ERK or total ERK by immunoblot. […] Cell lysates were analyzed for phosphorylated ERK or total ERK by immunoblot. […]
To gain insight into the time kinetics of TNF-α induced ERK phosphorylation, HeLa cells were treated with TNF-α (50 ng/mL) for different time periods. […] Down-modulation of IG20 transcripts upon treatment with different ShRNA expressing lentiviruses was monitored by RT-PCR. […]

Substance: MADD1041A: MADD mutant T1041A
- Cell death upon enforced expression (HEK293 cells): minimal effects on cell death
- In vitro phosphorylation by Akt (Akt): reduced or absent

Substance: MADD173A: MADD mutant T173A
- Cell death upon enforced expression (HEK293 cells): minimal effects on cell death
- In vitro phosphorylation by Akt (Akt): reduced or absent

Substance: MADD3A: MADD mutant, all three residues (S70, T173, T1041) converted to alanine
- Cell death upon enforced expression (HEK293 cells): significant cell death
- Association of exogenous MADD with DR4 (DR4): almost non-existant

Substance: MADD70A: MADD mutant S70A
- Cell death upon enforced expression (HEK293 cells): minimal effects on cell death
- In vitro phosphorylation by Akt (Akt): reduced or absent

Substance: wtMADD: recombinant wild-type MADD
- Cell death upon enforced expression (HEK293 cells): could not induce cell death
- Association of exogenous MADD with DR4 (DR4): can associate with DR4
- In vitro phosphorylation by Akt (Akt): phosphorylated by Akt

Substance: TNF-α [reference compound]
- Time of maximum ERK phosphorylation (ERK1/2): 15 min
